Data: ChEMBL document CHEMBL1201862, “PubChem BioAssay data set” (2004)
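These data come from cells grown in 96-well plates and exposed to compound for 48 hours at five concentrations. At the GI50, growth is halved.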 Calls of active or inactive are those of the source. No stated cut-off is given here; in the data, active = GI50 up to about 1.1 µM and inactive = higher.

Columns and labels:
Assay in all cases: growth of human tumour cells (NCI), 48 h
MCF7 = system: MCF7
786-0 = system: 786-0
SR = system: SR
KM12 = system: KM12
SK-MEL-2 = system: SK-MEL-2
DU-145 = system: DU-145
T47D = system: T47D
COLO 205 = system: COLO 205
NCI/ADR-RES = system: NCI/ADR-RES
RPMI-8226 = system: RPMI-8226
OVCAR-5 = system: OVCAR-5
LOX IMVI = system: LOX IMVI
RXF 393 = system: RXF 393
UACC-257 = system: UACC-257
M14 = system: M14
A549 = system: A549
MOLT-4 = system: MOLT-4
SNB-19 = system: SNB-19
HL-60 = system: HL-60
Hs-578T = system: Hs-578T

SMILES	GI50 (MCF7)	GI50 (786-0)	GI50 (SR)	GI50 (KM12)	GI50 (SK-MEL-2)	GI50 (DU-145)	GI50 (T47D)	GI50 (COLO 205)	GI50 (NCI/ADR-RES)	GI50 (RPMI-8226)	GI50 (OVCAR-5)	GI50 (LOX IMVI)	GI50 (RXF 393)	GI50 (UACC-257)	GI50 (M14)	GI50 (A549)	GI50 (MOLT-4)	GI50 (SNB-19)	GI50 (HL-60)	GI50 (Hs-578T)
C[C@H](CCC(=O)O)[C@H]1CC[C@H]2[C@@H]3[C@H](O)C[C@@H]4C[C@H](O)CC[C@]4(C)[C@H]3CC[C@]12C [CHENODIOL]	30.8 µM (inactive)	36.3 µM (inactive)	14.6 µM (inactive)	33.3 µM (inactive)	20 µM (inactive)	43.2 µM (inactive)	40.2 µM (inactive)	22.8 µM (inactive)	36.6 µM (inactive)	22.6 µM (inactive)	52.6 µM (inactive)	32.5 µM (inactive)	44.7 µM (inactive)	41.8 µM (inactive)	27.7 µM (inactive)	34.8 µM (inactive)	24.7 µM (inactive)	43.8 µM (inactive)	34 µM (inactive)	
CC/C(=C/OC)P1(=O)OC(C)(C)CN1C(C)(C)C (stereo not drawn)	> 100 µM (inactive)	> 100 µM (inactive)	> 100 µM (inactive)	> 100 µM (inactive)	> 100 µM (inactive)	> 100 µM (inactive)	> 100 µM (inactive)	> 100 µM (inactive)	> 100 µM (inactive)	> 100 µM (inactive)	> 100 µM (inactive)	> 100 µM (inactive)		> 100 µM (inactive)	> 100 µM (inactive)	> 100 µM (inactive)		> 100 µM (inactive)		
CC(=O)Oc1c(Br)ccc2cc(C(Br)Br)c(C(=O)c3ccccc3)nc12		22.6 µM (inactive)	28.1 µM (inactive)	19.6 µM (inactive)	20.7 µM (inactive)			24.4 µM (inactive)		> 10 µM (inactive)	17.3 µM (inactive)	23.9 µM (inactive)	17.9 µM (inactive)	1.88 µM (inactive)	21.2 µM (inactive)	24.3 µM (inactive)	20.7 µM (inactive)	19.9 µM (inactive)		
COc1ccc(C2(Cl)C(Cl)(C(F)(F)F)C2(Cl)C(F)(F)F)cc1 (stereo not drawn)		17.2 µM (inactive)	10.2 µM (inactive)	14 µM (inactive)	14.2 µM (inactive)			15.9 µM (inactive)		9.64 µM (inactive)	14.1 µM (inactive)	6.68 µM (inactive)	12.1 µM (inactive)	13.6 µM (inactive)	11.9 µM (inactive)	14.9 µM (inactive)	2.62 µM (inactive)	15.7 µM (inactive)	8.38 µM (inactive)	
COc1cc(OC2OC(COC(=O)c3cc(O)c(O)c(O)c3)C(O)C(O)C2O)ccc1O (stereo not drawn)	53.8 µM (inactive)	> 100 µM (inactive)	> 100 µM (inactive)	88.1 µM (inactive)	> 100 µM (inactive)	> 100 µM (inactive)		> 100 µM (inactive)	> 100 µM (inactive)	> 100 µM (inactive)	> 100 µM (inactive)	29.5 µM (inactive)	> 100 µM (inactive)	> 100 µM (inactive)	90.8 µM (inactive)	> 100 µM (inactive)	53.1 µM (inactive)	> 100 µM (inactive)	93.1 µM (inactive)	> 100 µM (inactive)
COc1nc(NC2OCC(OC(C)=O)C(OC(C)=O)C2OC(C)=O)c(/N=C\C=N\c2c(NC3OCC(OC(C)=O)C(OC(C)=O)C3OC(C)=O)nc(OC)n(C)c2=O)c(=O)n1C (stereo not drawn)		> 100 µM (inactive)	> 100 µM (inactive)	> 100 µM (inactive)	> 100 µM (inactive)			> 100 µM (inactive)		> 100 µM (inactive)	> 100 µM (inactive)	> 100 µM (inactive)	> 100 µM (inactive)	> 100 µM (inactive)	> 100 µM (inactive)	> 100 µM (inactive)		> 100 µM (inactive)	> 100 µM (inactive)	
C[N+](C)(C)CC(=O)N/N=C(\Cc1nc2ccc([N+](=O)[O-])cc2nc1O)C(=O)Nc1nc2ccc([N+](=O)[O-])cc2s1	29.4 µM (inactive)	93.8 µM (inactive)	44.1 µM (inactive)	45.2 µM (inactive)	28.1 µM (inactive)	39.4 µM (inactive)	21.9 µM (inactive)	48.8 µM (inactive)	63.4 µM (inactive)	34.5 µM (inactive)	> 100 µM (inactive)	35.6 µM (inactive)	41.3 µM (inactive)	> 100 µM (inactive)	55.1 µM (inactive)	36.3 µM (inactive)	49.2 µM (inactive)		> 100 µM (inactive)	
CC(C)(C)c1cc(C(C)(C)C)c(SS(=O)(=O)O)c(O)c1O	36.3 µM (inactive)	63.7 µM (inactive)		41.8 µM (inactive)	21.2 µM (inactive)	62.5 µM (inactive)	33.7 µM (inactive)	46.5 µM (inactive)	58.1 µM (inactive)	21.6 µM (inactive)	> 100 µM (inactive)	35.4 µM (inactive)	28.2 µM (inactive)	79.1 µM (inactive)	41.3 µM (inactive)	9.33 µM (inactive)	< 0.01 µM (active)	46.8 µM (inactive)	65.6 µM (inactive)	
